Assay in all cases: Cerep selectivity panel
Assay type in all cases: binding

The subject of experiment [1] is SST. In a few lines: (§1)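 Panel profiling: compound added at 1 µM or 10 µM, activity assessed against 50 receptors, ion channels and transporters.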
Experiment [2] deals with T1, 5HT1A (h) (Homo sapiens, UniProt P08908).
T1 construct: purchased Cerep
In a few lines:
as §1

Experiment [3] concerns the target T2, ETA (h) (Homo sapiens, UniProt P25101).
T2 construct: purchased Cerep
T2 sequence (P25101 21-427): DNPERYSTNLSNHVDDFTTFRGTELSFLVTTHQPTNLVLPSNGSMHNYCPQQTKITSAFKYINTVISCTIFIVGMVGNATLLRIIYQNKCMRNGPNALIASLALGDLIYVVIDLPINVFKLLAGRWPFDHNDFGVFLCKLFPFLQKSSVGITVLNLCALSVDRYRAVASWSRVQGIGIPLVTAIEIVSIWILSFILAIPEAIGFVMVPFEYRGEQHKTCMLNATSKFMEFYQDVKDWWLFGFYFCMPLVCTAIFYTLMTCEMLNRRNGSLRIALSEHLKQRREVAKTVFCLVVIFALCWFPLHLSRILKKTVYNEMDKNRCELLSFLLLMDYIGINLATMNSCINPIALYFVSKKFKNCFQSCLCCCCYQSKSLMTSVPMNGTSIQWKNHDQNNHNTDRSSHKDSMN
The settings on record: for inhibition at 10 µM: read-out: % Inhibition at 10µM. In outline:
as §1

Experiment [4] deals with T3, VIP 1 (h) (Homo sapiens, UniProt P32241).
T3 construct: purchased Cerep
T3 sequence (P32241 31-457): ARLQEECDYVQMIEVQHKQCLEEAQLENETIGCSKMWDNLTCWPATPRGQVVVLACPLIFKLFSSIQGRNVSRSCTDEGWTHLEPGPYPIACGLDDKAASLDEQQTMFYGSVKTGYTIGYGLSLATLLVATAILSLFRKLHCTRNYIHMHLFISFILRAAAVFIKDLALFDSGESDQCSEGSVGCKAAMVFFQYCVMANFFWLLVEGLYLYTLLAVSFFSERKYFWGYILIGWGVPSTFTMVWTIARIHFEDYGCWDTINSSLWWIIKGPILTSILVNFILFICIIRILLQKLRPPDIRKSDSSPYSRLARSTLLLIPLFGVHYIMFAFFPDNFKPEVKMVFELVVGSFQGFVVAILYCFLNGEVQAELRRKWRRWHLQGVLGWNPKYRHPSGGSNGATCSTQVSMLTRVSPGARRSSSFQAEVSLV
In a few lines: as §1

In experiment [5] the test system is Ca2+ Channel. In outline:
as §1

In experiment [6] the target is T4, 5HT1B (Rattus norvegicus, UniProt P28564).
T4 construct: purchased Cerep
T4 sequence (P28564 whole entry): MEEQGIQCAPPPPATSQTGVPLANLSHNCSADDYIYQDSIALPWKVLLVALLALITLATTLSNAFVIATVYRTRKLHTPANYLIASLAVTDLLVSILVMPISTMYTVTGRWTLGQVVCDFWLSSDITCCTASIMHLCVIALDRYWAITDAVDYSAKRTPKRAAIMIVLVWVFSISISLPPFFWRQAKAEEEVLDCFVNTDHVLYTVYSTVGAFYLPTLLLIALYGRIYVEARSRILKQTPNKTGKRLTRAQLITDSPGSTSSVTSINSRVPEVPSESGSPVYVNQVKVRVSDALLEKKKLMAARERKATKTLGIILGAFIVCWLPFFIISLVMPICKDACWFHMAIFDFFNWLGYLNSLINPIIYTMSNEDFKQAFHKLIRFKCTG
In outline: as §1

For experiment [7], the system named is Aa2.
The subject of experiment [8] is Na+ Channel.
Experiment [9] concerns the target T5, M1 (h) (Homo sapiens, UniProt P11229).
T5 construct: purchased Cerep
T5 sequence (P11229 1-460): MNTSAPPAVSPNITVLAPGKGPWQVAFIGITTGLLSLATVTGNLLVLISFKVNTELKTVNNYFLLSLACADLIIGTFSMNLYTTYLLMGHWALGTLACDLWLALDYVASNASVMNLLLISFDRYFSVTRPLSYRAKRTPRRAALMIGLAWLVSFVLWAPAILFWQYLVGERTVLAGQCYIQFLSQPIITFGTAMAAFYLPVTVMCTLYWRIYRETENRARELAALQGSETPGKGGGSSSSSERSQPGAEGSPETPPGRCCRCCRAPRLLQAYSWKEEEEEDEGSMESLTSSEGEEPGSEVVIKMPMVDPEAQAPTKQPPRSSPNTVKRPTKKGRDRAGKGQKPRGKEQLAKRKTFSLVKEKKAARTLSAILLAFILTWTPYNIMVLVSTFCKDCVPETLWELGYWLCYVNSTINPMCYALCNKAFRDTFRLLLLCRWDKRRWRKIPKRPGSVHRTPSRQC
In outline:
as §1

In experiment [10] the target is T6, M2 (h) (Homo sapiens, UniProt P08172).
T6 construct: purchased Cerep
T6 sequence (P08172 1-466): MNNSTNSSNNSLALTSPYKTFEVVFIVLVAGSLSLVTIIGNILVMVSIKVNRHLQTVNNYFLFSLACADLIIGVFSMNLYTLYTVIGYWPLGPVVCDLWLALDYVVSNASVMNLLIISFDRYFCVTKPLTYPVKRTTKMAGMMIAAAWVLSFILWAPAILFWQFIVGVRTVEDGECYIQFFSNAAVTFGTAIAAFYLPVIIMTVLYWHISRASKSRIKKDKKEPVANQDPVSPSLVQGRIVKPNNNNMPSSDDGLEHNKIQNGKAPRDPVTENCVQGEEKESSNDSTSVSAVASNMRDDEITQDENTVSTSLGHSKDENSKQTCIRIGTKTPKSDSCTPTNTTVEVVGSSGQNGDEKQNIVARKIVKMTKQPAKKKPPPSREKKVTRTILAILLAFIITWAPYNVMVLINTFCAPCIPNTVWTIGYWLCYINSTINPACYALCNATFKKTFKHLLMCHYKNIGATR
In a few lines: as §1

Experiment [11] deals with T7, GAL2 (h) (Homo sapiens, UniProt O43603).
T7 construct: purchased Cerep
T7 sequence (O43603 whole entry): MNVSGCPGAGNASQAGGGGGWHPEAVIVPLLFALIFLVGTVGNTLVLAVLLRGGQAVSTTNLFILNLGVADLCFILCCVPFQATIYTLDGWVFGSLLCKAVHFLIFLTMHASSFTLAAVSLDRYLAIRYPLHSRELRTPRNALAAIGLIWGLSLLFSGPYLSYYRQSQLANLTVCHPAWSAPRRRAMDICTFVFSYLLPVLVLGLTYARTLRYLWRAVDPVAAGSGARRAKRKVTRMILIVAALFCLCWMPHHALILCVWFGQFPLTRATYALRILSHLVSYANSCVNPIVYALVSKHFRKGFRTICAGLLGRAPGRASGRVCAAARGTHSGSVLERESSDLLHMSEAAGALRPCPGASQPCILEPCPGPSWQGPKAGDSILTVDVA
In outline:
as §1

The target in experiment [12] is T8, H2 (h) (Homo sapiens, UniProt P25021).
T8 construct: purchased Cerep
T8 sequence (P25021 whole entry): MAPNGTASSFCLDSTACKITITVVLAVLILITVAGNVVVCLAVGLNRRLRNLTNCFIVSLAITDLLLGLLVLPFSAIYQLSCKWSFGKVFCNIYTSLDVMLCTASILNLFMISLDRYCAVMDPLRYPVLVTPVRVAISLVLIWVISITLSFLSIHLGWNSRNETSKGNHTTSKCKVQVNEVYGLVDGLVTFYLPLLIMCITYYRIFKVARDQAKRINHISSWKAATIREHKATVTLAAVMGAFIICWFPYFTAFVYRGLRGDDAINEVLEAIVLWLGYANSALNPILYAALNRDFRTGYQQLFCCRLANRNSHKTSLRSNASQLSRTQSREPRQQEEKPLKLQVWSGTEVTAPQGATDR
In outline:
as §1

Experiment [13] addresses T9, CCKA (h) (Homo sapiens, UniProt P32238).
T9 construct: purchased Cerep
In outline:
as §1

Structures are written as SMILES. Where two headings read alike, the source gives them in different places.

The term % Inhibition denotes the percentage by which the read-out fell short of the control. Read a high % Inhibition as a response far below the control. What is called inhibition is the share of the control response that was lost under treatment.

T1 sequence (P08908 whole entry): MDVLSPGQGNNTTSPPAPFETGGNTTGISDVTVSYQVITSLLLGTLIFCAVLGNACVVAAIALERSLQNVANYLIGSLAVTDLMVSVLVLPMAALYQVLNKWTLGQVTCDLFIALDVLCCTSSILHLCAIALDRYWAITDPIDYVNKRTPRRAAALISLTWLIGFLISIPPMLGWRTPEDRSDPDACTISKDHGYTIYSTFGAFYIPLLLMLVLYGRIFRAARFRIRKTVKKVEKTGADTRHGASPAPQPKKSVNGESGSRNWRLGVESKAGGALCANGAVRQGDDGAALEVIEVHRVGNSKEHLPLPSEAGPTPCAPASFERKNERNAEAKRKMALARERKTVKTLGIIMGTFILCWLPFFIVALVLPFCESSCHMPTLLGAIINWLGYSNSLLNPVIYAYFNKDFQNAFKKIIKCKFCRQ
T9 sequence (P32238 whole entry): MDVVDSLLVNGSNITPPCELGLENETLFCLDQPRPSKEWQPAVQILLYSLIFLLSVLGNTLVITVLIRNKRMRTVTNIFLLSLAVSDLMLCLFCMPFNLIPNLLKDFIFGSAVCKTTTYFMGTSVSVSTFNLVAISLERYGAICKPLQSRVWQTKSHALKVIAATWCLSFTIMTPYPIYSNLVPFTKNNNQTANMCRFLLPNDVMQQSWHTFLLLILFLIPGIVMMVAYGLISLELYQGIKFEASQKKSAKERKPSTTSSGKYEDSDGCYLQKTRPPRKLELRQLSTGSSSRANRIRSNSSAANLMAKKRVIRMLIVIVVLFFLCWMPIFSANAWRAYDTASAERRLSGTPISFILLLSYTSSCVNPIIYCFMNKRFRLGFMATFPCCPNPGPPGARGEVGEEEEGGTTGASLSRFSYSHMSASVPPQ

`COc1nc2ccc([C@@](O)(c3ccc(C)nc3C)c3cnnn3C)cc2c(Cl)c1Cc1ccc(C(F)(F)F)cc1` [compound A]: the “% Inhibition at 10µM” value in experiment [1] is reported as 6%; in experiment [5] it was 32%; in experiment [7], 7%; in experiment [8], 45%. Moreover, the inhibition at 1 µM in experiment [2] (1 µM) stood at 14%; in experiment [3] (ETA (h), 1 µM) it was 5%; in experiment [4], 3%. Moreover, the inhibition at 10 µM in experiment [2] (10 µM) came to 19%; in experiment [3] (ETA (h), 10 µM) it was 4%; in experiment [6], 1%. In addition, the figures for the “% Inhibition at 1µM” value in experiment [5] and in experiment [8] (1 µM) were 2% and 20%, respectively.

`COc1nc2ccc([C@@](O)(c3ccccc3)C3CCN(C(C)=O)CC3)cc2c(Cl)c1Cc1ccc(-n2cccn2)cc1` [C]: the inhibition at 10 µM was 12% in experiment [3] and 21% in experiment [9]. Moreover, the inhibition at 1 µM in experiment [9] is 12%.

As to `COc1nc2ccc([C@](O)(c3ccc(Cl)cc3)c3cncn3C)cc2c(Cl)c1Cc1ccc(-n2cccn2)cc1` [B], the results for the “% Inhibition at 10µM” value in [1], in experiment [5] and in experiment [8] were 1%, 21% and 3%, respectively. This molecule showed an inhibition at 1 µM in experiment [10] of 16%. The inhibition at 10 µM in experiment [10] was determined as 23%; in experiment [11], 1%. The “% Inhibition at 1µM” value in experiment [5] was 3%.

As for `CN(C)c1nc2ccc(C(O)(c3ccncc3)c3cncn3C)cc2c(Cl)c1-c1ccccc1` (stereo not shown) [compound D], the inhibition at 1 µM worked out at 10% in experiment [10], 6% in experiment [9] and 11% in [13]. In addition, the inhibition at 10 µM in experiment [10] was determined as 47%; in experiment [12] it was 5%; in [9], 67%.

Values taken from PMC5538713, “RORγt and RORα signature genes in human Th17 cells” (PLoS ONE, 2017).
